Series [1] relates to ovarian 1 A 9 tumor. The series can be described thus: ET-743/DDP against ovarian 1A9 tumor in vivo. On the set-up: species or system human. The conditions noted are these: single agents. The text has this:
The ovarian 1 A 9 tumor that is normally resistant to both ET-743 and DDP as single agents, in combination produced a tumor growth inhibition greater than 50%.

Series [2] has as its system human ovarian carcinoma HOC8. Briefly: ET-743/DDP against orthotopically transplanted HOC8. The class given is in vivo. The settings on record: HOC8 orthotopic, peritoneal nodules with ascites; single agents.
In series [3] the test system is sc transplanted TE671. Briefly: ET-743/DDP against sc transplanted TE671. The class given is in vivo, human. The conditions noted are these: single drugs at MTD or combination.
Series [4] concerns UV2237/ADR. The series can be described thus: ET-743/doxorubicin against mdr-resistant subline UV2237/ADR in mice. The class given is in vivo, murine. The conditions noted are these: alone or combination.
Series [5] has as its system HT-1080 cells. The series can be described thus: Cell cycle analysis (propidium iodide, FACS), HT-1080. It is filed as cell-based, human. As to the method: (§1) Exponentially growth cells were treated with or without drugs for several hours. Cells were then collected and fixed with ice-cold 70% methanol. DNA was stained with propidium iodide as described previously. Ten thousand stained cells were analyzed on a Becton Dickinson fluorescence-activated cell sorter (FACS).

The nature of series [6]: Biodistribution/PK of DOX with ET-743 in nude mice with tumor xenografts. The conditions noted are these: DOX alone vs concomitant treatment with ET-743. The class given is in vivo. The source says: ET-743 has shown activity in patients with sarcoma refractory to DOX and ifosfamide. In view of its potential as an effective drug, we investigated (1) the preclinical anti-tumor activity of ET-743/DOX combination against the human rhabdomyosarcoma TE 671 and (2) possible interactions between the drugs and their biodistribution in nude mice and tumor xenografts.
The pharmacokinetic (PK) evaluation of ET-743 given alone or in combination with DOX is underway.

Series [7] relates to murine fibrosarcoma UV2237. Briefly: ET-743/doxorubicin against murine fibrosarcoma UV2237 in mice. It is filed as in vivo. The conditions noted are these: alone or combination.
In series [8] the test system is HS-18 cells. Briefly: Cell cycle analysis (propidium iodide, FACS), HS-18. It is filed as cell-based, human. As to the method: as §1
Series [9] has as its system HT-1080. The series can be described thus: SRB cytotoxicity assay and Chou-Talalay combination index, HT-1080. It is filed as cell-based, human. The conditions noted are these: Homo sapiens, HT-1080, 72 h; read-out: IC50 for human soft tissue sarcoma cells, HT-1080. Here is the method:
(§2) Soft tissue sarcoma cell lines, HT-1080 and HS-18 were maintained as monolayer cultures in RP<I-1640 containing 10% fetal bovine serum.
(§3) Cytotoxicity to drugs was determined by SRB cytotoxicity assay carried out in 96-well microtiter plates as described. Cells were plated in duplicate wells (5000 cells/well) and exposed to drugs at different concentrations. Cells were fixed with 50% TCA solution for 1 h and 0.4% SRB (Sigma) was added to each well. After a 30 min incubation, the plate were washed with 1% acetic acid and read at 570 nm on a Biowhitaker microplate reader 2001. The wells with cells containing no drugs and with medium plus drugs but no cells were used as positive and negative controls, respectively.
(§4) Cells were seeded into 96-well plates, as described previously. Cells were treated with seven different concentrations of the single drugs or combinations mixture at 1:100 (ET-743: the other drugs) molar ratio. After 72 h exposure, growth inhibition was measured using the SRB assay.
(§5) Using the same experimental setup described above, we exposed cells to three different concentrations of drugs which represents the IC25, IC50, IC75 of ET-743, DXR, TMTX and paclitaxel, respectively. After 24 hours pre-treatment with ET743 or the combination drug, the second drugs were added to the respective wells for 48 h. Growth inhibition was determined using the SRB assay.)
(§6) The CI was calculated by the Chou-Talalay equation, which takes into account both potency (Dm or IC50) and the shape of the dose effect curve (the m value). The general equation for the classic isobologram (CI=1) is given by:
(§7) CI=(D)1/(Dx)1+(D)2/(Dx)2 (A)

Series [10] relates to human rabdomyosarcoma zenograft TE671. The series can be described thus: ET-743/doxorubicin against TE671 xenograft in athymic (nude) mice. The class given is in vivo. Here is the method:
In vivo: Single iv treatments (ET-743, 0.1 mg/Kg; DOX, 10 mg/Kg) were administered in nude mice when xenograft tumors weighed approximately 100 mg.

In series [11] the test system is HS-18. The series can be described thus: SRB cytotoxicity assay and Chou-Talalay combination index, HS-18. It is filed as cell-based, human. The settings on record: Homo sapiens, 72 h; read-out: IC50 for human soft tissue sarcoma cells, HS-18. Here is the method: as §2, §3, §4, §5, §6, §7
(In general: Sulforhodamine B stains cellular protein and so reports cell mass.)

For series [12], the system named is TE 671 cells. Briefly: Clonogenic assay ET-743/DOX, TE 671. The class given is cell-based, human. The settings on record: 1 hr exposures, isobologram analysis and Combination Index. Here is the method:
In vitro: The effect of each drug or combination after 1 hr exposures was evaluated by clonogenic assay.

For series [13], the system named is liver. The settings on record: rat.
Protocol: In the light of the antiinflammatory activity of dex, we investigated its effect on liver damage induced by ET-743 in the rat. Female Wistar rats received a single iv dose of ET-743 (40 μg/kg). Some rats were pretreated with a single oral dose of dex either at 1, 5, 10 or 20 mg/kg 24 h prior to ET-743 treatment. Liver pathology and plasma concentrations of alkaline phophatase (ALP), aspartate aminotransferase (GOT) and total bilirubin (TB) were assessed up to 3 days post ET-743 administration. Conventional histological sections of the livers were examined by light microscopy.
Where [14] appears, read: 24 h after treatment with approximate IC50 dose.
[15] abbreviates: 72 h after treatment with approximate IC50 dose.
The mark [16] stands for this setting: single i.v. treatment at tumor approx. 100 mg, drug alone (ET-743 0.1 mg/kg; Dx 10 mg/kg).

pIC50: −log10 of the molar value. Read-outs that look alike come from different tables or passages of the source.

A word on the pIC50: it is the negative decadic logarithm of the IC50, by convention in mol/L.

In the case of `N.N.[Cl][Pt][Cl]` [DDP, cisplatin], the “sensitivity of tumor to single agent” value in series [1] is “resistant”; in series [2] it was “partially sensitive”. The “antitumor effect in words” value in [3] is listed as “partially sensitive”.
As for `COc1cccc2c1C(=O)c1c(O)c3c(c(O)c1C2=O)C[C@@](O)(C(=O)CO)C[C@@H]3O[C@H]1C[C@H](N)[C@H](O)[C@H](C)O1` [Dx, doxorubicin], the “antitumor effect in words” value is “inactive or marginally active” in [4]; “effective” in series [7]; “inactive or marginally active” in series [10] (TE671 in mice, alone or combination). The “% G1” value in series [5] (setting [14]) is 36.1%; in series [5] (setting [15]) it was 46.2%; in [8] (setting [15]), 1.3%. Besides, the “% S phase” value in [5] (setting [14]) came out at 17.5%; in series [5] (setting [15]), 5.3%; in [8] (setting [14]) it was 64.9%; in [8] (setting [15]) it was 63.8%. The “PK profile of DOX (plasma and tumor concentrations)” value in series [6] is reported as “not influenced”. The “% G2-M” value in [8] (setting [14]) came out at 25.0%; in [8] (setting [15]) it was 34.9%. The pIC50 in series [9] is 7.60; in series [11] it was 6.65. In addition, the “Log 10 Cell Kill (LCK)” value in series [10] (setting [16]) was found to be 0.33. Further, in series [10] (setting [16]), the “tumor weight inhibition (TWI)” value was 50%. Besides, the “anti-tumor activity / interaction in clonogenic assay” value in [12] is “showed anti-tumor activity”.
`CC(=O)O[C@H]1C(=O)[C@@]2(C)[C@H]([C@H](OC(=O)c3ccccc3)[C@]3(O)C[C@H](OC(=O)[C@H](O)[C@@H](NC(=O)c4ccccc4)c4ccccc4)C(C)=C1C3(C)C)[C@]1(OC(C)=O)CO[C@@H]1C[C@@H]2O` [Paclitaxel]: the “% G1” value is given as 45.4% in series [5] (setting [14]), 86.0% in [5] (setting [15]), 32.8% in [8] (setting [14]) and 23.5% in series [8] (setting [15]). The “% G2-M” value in series [5] (setting [14]) came out at 17.3%; in [5] (setting [15]) it was 5.0%; in series [8] (setting [14]), 15.5%; in series [8] (setting [15]), 26.2%. In addition, the “% S phase” value worked out at 37.3% in [5] (setting [14]), 9.0% in series [5] (setting [15]), 52.5% in series [8] (setting [14]) and 58.7% in [8] (setting [15]). For the same compound, the pIC50 in [9] was 8.89; in [11], 8.00.
`COc1cc(NCc2ccc3nc(N)nc(N)c3c2C)cc(OC)c1OC` [TMTX, trimetrexate]: the “% G1” value in series [5] (setting [14]) is 31.9%; in series [5] (setting [15]), 32.0%; in [8] (setting [14]), 44.2%; in [8] (setting [15]), 35.5%. Also, the “% G2-M” value in series [5] (setting [14]) was 11.3%; in series [5] (setting [15]), 14.4%; in [8] (setting [14]), 1.9%; in [8] (setting [15]), 7.0%. Besides, the “% S phase” value in series [5] (setting [14]) is listed as 56.8%; in series [5] (setting [15]) it was 53.7%; in [8] (setting [14]) it was 53.8%; in [8] (setting [15]), 57.6%. Further, the pIC50 in [9] was 8.22; in series [11], 4.15.
As to `C[C@@H]1C[C@H]2[C@@H]3CCC4=CC(=O)C=C[C@]4(C)[C@@]3(F)[C@@H](O)C[C@]2(C)[C@@]1(O)C(=O)CO` [dex, dexamethasone], the “protection against ET-743 liver damage” value in [13] (dex 1 mg/kg single oral dose 24 h prior to ET-743) is listed as “little protection”; in [13] (dex 5 mg/kg single oral dose 24 h prior to ET-743), “moderately protective”. Moreover, the “effect on ET-743-induced histopathological changes and elevation of plasma ALP, GOT and TB” value in series [13] (dex 10 mg/kg single oral dose 24 h prior to ET-743 40 μg/kg iv) and in series [13] (dex 20 mg/kg single oral dose 24 h prior to ET-743 40 μg/kg iv) was “totally abrogated” throughout.

The values above are taken from US20120107417A1, “Effective Antitumor Treatments” (PHARMA MAR, S.A., priority 2000, published 2012).
